In experiment [1] the target is Acetylcholinesterase (Electrophorus electricus, UniProt O42275). Nature of the experiment: In vitro AChE and BChE Assay. Conditions: pH 8. On the procedure: (§1) The synthesized compounds (each separately) were dissolved in a mixture of DMSO (1 ml) and methanol (9 ml) and then diluted in KH2PO4/K2HPO4 buffer (0.1 M, pH 8.0) to obtain desired concentration. […] The mixture was pre-incubated at 30 °C for 10 min and followed by adding 1 mM ATCI or BTCI and incubated again for 15 min. […] Instead of inhibitor, DMSO was used asnegative control to subtract its effect on activity. All reactions were carried out in triplicate.

Experiment [2] addresses Carboxylic ester hydrolase (Equus caballus, UniProt Q9N1N9). Nature of the experiment: In vitro AChE and BChE Assay. Conditions: pH 8. On the procedure:
as §1

Sequence of Acetylcholinesterase (O42275 whole entry): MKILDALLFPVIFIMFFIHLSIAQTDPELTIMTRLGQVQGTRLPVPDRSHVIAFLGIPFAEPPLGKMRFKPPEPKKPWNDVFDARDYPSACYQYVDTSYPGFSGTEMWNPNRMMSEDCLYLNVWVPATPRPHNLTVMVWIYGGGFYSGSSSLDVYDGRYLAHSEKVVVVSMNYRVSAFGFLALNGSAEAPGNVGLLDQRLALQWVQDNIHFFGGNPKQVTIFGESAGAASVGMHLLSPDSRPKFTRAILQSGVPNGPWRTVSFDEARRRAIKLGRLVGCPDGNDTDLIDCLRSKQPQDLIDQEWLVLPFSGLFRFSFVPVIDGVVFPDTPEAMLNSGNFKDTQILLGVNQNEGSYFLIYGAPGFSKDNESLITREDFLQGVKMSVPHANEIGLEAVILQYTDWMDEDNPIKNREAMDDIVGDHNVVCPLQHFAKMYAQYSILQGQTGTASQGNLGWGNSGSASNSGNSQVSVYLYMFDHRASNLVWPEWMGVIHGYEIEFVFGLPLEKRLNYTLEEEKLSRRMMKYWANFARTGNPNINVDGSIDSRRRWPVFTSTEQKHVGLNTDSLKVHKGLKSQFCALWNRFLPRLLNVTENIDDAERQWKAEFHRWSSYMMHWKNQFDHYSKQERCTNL
Sequence of Carboxylic ester hydrolase (Q9N1N9 whole entry): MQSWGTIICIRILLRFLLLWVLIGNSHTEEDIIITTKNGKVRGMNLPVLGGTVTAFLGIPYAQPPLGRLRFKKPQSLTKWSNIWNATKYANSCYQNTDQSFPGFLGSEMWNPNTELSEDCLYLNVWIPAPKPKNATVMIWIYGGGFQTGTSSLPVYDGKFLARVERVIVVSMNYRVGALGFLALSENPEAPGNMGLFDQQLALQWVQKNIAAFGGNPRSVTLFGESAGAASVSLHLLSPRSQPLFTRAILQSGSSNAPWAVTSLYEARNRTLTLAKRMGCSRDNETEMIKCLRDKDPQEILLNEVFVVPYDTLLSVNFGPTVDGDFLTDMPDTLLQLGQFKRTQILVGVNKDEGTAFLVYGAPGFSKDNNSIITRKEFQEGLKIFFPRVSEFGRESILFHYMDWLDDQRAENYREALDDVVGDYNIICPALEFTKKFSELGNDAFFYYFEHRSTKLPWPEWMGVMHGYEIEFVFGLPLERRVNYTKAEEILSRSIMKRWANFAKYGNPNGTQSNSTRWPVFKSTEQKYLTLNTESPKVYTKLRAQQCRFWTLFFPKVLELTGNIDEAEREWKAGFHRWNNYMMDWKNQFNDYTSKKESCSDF

Turning to `CC(=O)C1=C(C)NC(N)=NC1c1ccc(OCc2ccccc2)cc1` (stereo not drawn) [1-(2-Amino-4-(4-(benzyloxy)phenyl)-6-methyl-1,4-dihydropyrimidin-5-yl)ethanone (2c)], the IC50 (commonly the concentration at which inhibition is half-maximal) in experiment [1] came to 39.5 µM. In other words, the double-digit micromolar range.

Take `CC(=O)C1=C(C)NC(N)=NC1c1ccc(Br)cc1` (stereo not drawn) [1-(2-Amino-4-(4-bromophenyl)-6-methyl-1,4-dihydropyrimidin-5-yl)ethanone (2b)]: the IC50 in experiment [1] turned out to be 58 µM.

Consider `CC(=O)C1=C(C)NC(N)=NC1c1ccc(Cl)cc1` (stereo not drawn) [1-(2-Amino-4-(4-chlorophenyl)-6-methyl-1,4-dihydropyrimidin-5-yl)ethanone (2e)], for which inhibition in experiment [1] was half-maximal at 68.3 µM (IC50).

Consider `CC(=O)C1=C(C)NC(N)=NC1c1ccccc1` (stereo not drawn) [1-(2-Amino-6-methyl-4-phenyl-1,4-dihydropyrimidin-5-yl)ethanone (2a)], for which it took 41.3 µM to reach half-maximal inhibition in experiment [1] (IC50).

On to `CC(=O)C1=C(C)NC(=S)NC1c1ccc(OCc2ccccc2)cc1` (stereo not drawn) [1-(4-(4-(Benzyloxy)phenyl)-6-methyl-2-thioxo-3,4-tetrahydropyrimidin-5-yl)ethanone (1c)], for which, in experiment [1], the IC50 was 28.1 µM.

The compound `CC(=O)C1=C(C)NC(=S)NC1c1ccc(Br)cc1` (stereo not drawn) [1-(4-(4-Bromophenyl)-6-methyl-2-thioxo-3,4-tetrahydropyrimidin-5-yl)ethanone (1b)] had an IC50 in experiment [1] of 53.2 µM.

Take `CC(=O)C1=C(C)NC(=S)NC1c1ccc(Cl)cc1` (stereo not drawn) [1-(4-(4-Chlorophenyl)-6-methyl-2-thioxo-3,4-tetrahydropyrimidin-5-yl)ethanone (1e)]: the IC50 in experiment [1] is 59.9 µM.

Consider `CC(=O)C1=C(C)NC(=S)NC1c1ccc(C)cc1` (stereo not drawn) [1-(6-Methyl-2-thioxo-4-p-tolyl-3,4-tetrahydropyrimidin-5-yl)ethanone (1d)], for which inhibition in experiment [1] was half-maximal at 55.9 µM (IC50).

Consider `CC(=O)C1=C(C)NC(NCC(=O)Nc2ccc(C)cc2)=NC1c1ccc(Br)cc1` (stereo not drawn) [2-(5-Acetyl-4-(4-bromophenyl)-6-methyl-1,4-dihydropyrimidin-2-ylamino)-N-p-tolylacetamide (5e)], for which the IC50 was 20.9 µM in experiment [2] and 3.13 µM in experiment [1].

As to `CC(=O)C1=C(C)NC(NCC(=O)Nc2ccccc2)=NC1c1ccc(Br)cc1` (stereo not drawn) [2-(5-Acetyl-4-(4-bromophenyl)-6-methyl-1,4-dihydropyrimidin-2-ylamino)-N-phenylacetamide (5c)], the IC50 was 38.5 µM in experiment [2] and 12.9 µM in experiment [1].

Turning to `CC(=O)C1=C(C)NC(SCC(=O)Nc2ccc(C)cc2)=NC1c1ccc(Br)cc1` (stereo not drawn) [2-(5-Acetyl-4-(4-bromophenyl)-6-methyl-1,4-dihydropyrimidin-2-ylthio)-N-p-tolylacetamide (4e)], the IC50 in experiment [2] was 52.8 µM; in experiment [1], 1.39 µM.

With `CC(=O)C1=C(C)NC(SCC(=O)Nc2ccccc2)=NC1c1ccc(Br)cc1` (stereo not drawn) [2-(5-Acetyl-4-(4-bromophenyl)-6-methyl-1,4-dihydropyrimidin-2-ylthio)-N-phenylacetamide (4c)], the IC50 in experiment [2] was 24.5 µM; in experiment [1], 8.23 µM.

Regarding `CC(=O)C1=C(C)NC(NCC(=O)Nc2ccc(C)cc2)=NC1c1ccc(Cl)cc1` (stereo not drawn) [2-(5-Acetyl-4-(4-chlorophenyl)-6-methyl-1,4-dihydropyrimidin-2-ylamino)-N-p-tolylacetamide (5f)], the IC50 came to 26.4 µM in experiment [2] and 3.08 µM in experiment [1].

As to `CC(=O)C1=C(C)NC(SCC(=O)Nc2ccc(C)cc2)=NC1c1ccc(Cl)cc1` (stereo not drawn) [2-(5-Acetyl-4-(4-chlorophenyl)-6-methyl-1,4-dihydropyrimidin-2-ylthio)-N-p-tolylacetamide (4f)], the values for the IC50 in experiment [2] and in experiment [1] were 50 µM and 1.11 µM, respectively.

`CC(=O)C1=C(C)NC(NCC(=O)Nc2ccc(C)cc2)=NC1c1ccc(C)cc1` (stereo not drawn) [2-(5-Acetyl-6-methyl-4-p-tolyl-1,4-dihydropyrimidin-2-ylamino)-N-p-tolylacetamide (5h)]: the IC50 is 29.4 µM in experiment [2] and 7.87 µM in experiment [1].

Turning to `CC(=O)C1=C(C)NC(SCC(=O)Nc2ccc(C)cc2)=NC1c1ccc(C)cc1` (stereo not drawn) [2-(5-Acetyl-6-methyl-4-p-tolyl-1,4-dihydropyrimidin-2-ylthio)-N-p-tolylacetamide (4h)], the IC50 in experiment [2] stood at 56.3 µM; in experiment [1], 7.63 µM.

As to `CC(=O)C1=C(C)NC(NCC(=O)Nc2ccc(Cl)cc2)=NC1c1ccccc1` (stereo not drawn) [2-(5-Acetyl-6-methyl-4-phenyl-1,4-dihydropyrimidin-2-ylamino)-N-(4-chlorophenyl)acetamide (5b)], the IC50 turned out to be 27.2 µM in experiment [2] and 2.01 µM in experiment [1].

Take `CC(=O)C1=C(C)NC(NCC(=O)Nc2ccccc2)=NC1c1ccccc1` (stereo not drawn) [2-(5-Acetyl-6-methyl-4-phenyl-1,4-dihydropyrimidin-2-ylamino)-N-phenylacetamide (5a)]: the IC50 in experiment [2] is 15 µM; in experiment [1] it was 5.33 µM.

Consider `CC(=O)C1=C(C)NC(SCC(=O)Nc2ccccc2)=NC1c1ccccc1` (stereo not drawn) [2-(5-Acetyl-6-methyl-4-phenyl-1,4-dihydropyrimidin-2-ylthio)-N-phenylacetamide (4a)], for which the IC50 in experiment [2] came to 2.37 µM; in experiment [1], 0.17 µM.

As for `CC(=O)C1=C(C)NC(SCC(=O)Nc2ccc(Cl)cc2)=NC1c1ccccc1` (stereo not drawn) [2-((5-Acetyl-6-methyl-4-phenyl-1,4-dihydropyrimidin-2-yl)thio)-N-(4-chlorophenyl)acetamide (4b)], the IC50 in experiment [2] came out at 16.4 µM; in experiment [1], 1.97 µM.

In turn, `CC(=O)C1=C(C)NC(=S)NC1c1ccccc1` (stereo not drawn) [5-Aceto-6-methyl-4-phenyl-3,4-dihydropyrimidin-2(1H)-thione (1a)] returned an IC50 in experiment [1] of 87.6 µM. This counts as double-digit micromolar.
